Source: the supplement of paper PMC13380429

Experiments:
[1] = test system: A549-ACE2 infected with SARS-CoV-2; test: cell count relative to DMSO; higher = less toxic; conditions: 24 h
[2] = test system: Caco-2; test: cell viability relative to DMSO; higher = less toxic; conditions: 72 h
[3] = test system: Calu-3; test: as above; conditions: 72 h
[4] = test system: HepG2; test: as above; conditions: 72 h
[5] = test system: U2OS; test: as above; conditions: 72 h
[6] = test system: Vero E6; test: as above; conditions: 72 h
[7] = test system: A549-ACE2 infected with SARS-CoV-2; test: SARS-CoV-2 infection rate relative to DMSO; higher = more infection; conditions: 24 h
[8] = test system: A549-ACE2; test: drug-induced phospholipidosis relative to tamoxifen; higher = more phospholipidosis
[9] = test system: A549-ACE2 infected with SARS-CoV-2; test: morphology score (similarity to uninfected cells); higher = more like uninfected cells; conditions: 24 h
[10] = test system: Caco-2; test: relative viability EC50 (midpoint between 100% and the lowest measured viability); higher = less toxic; conditions: 72 h
[11] = test system: Calu-3; test: as above; conditions: 72 h
[12] = test system: HepG2; test: as above; conditions: 72 h
[13] = test system: U2OS; test: as above; conditions: 72 h
[14] = test system: Vero E6; test: as above; conditions: 72 h
[15] = test system: Caco-2; test: drug sensitivity score (DSS) for viability; higher = more toxic; extreme values may be limits of the assay; conditions: 72 h
[16] = test system: Calu-3; test: as above; conditions: 72 h
[17] = test system: HepG2; test: as above; conditions: 72 h
[18] = test system: U2OS; test: as above; conditions: 72 h
[19] = test system: Vero E6; test: as above; conditions: 72 h
[20] = test system: A549-ACE2; test: phospholipidosis EC50; higher = less potent phospholipidosis inducer

N#CC[C@@H](C1CCCC1)n1cc(-c2ncnc3[nH]ccc23)cn1 [ruxolitinib-(S)]
Conditions	SARS-CoV-2 infection rate, [7] [%]	cell count, [1] [%]	cell viability, [2] [%]	cell viability, [3] [%]	cell viability, [4] [%]	cell viability, [5] [%]	cell viability, [6] [%]	morphology score, [9]
1 nM	–	–	103	91.4	101	100	98.5	–
10 nM	–	–	99	97.1	96	99.1	101	–
100 nM	–	–	106	99	92.3	99.3	98.2	–
0.3 µM	109	88	–	–	–	–	–	0.15
1000 nM	–	–	93.6	102	103.3	97.5	96.5	–
3 µM	110	100	–	–	–	–	–	0.17
10 µM	112	91	–	–	–	–	–	-0.08
10000 nM	–	–	99.6	112	97.4	95.8	94.05	–
30 µM	119	36	–	–	–	–	–	-0.15

drug-induced phospholipidosis [%], [8]
Conditions	0.3 µM	0.833333 µM	3.33333 µM	6.66667 µM	10 µM	30 µM
24 h	-0.6	-1.86	-0.62	3.24	4.69	32.2
48 h	-3.03	-3.25	-1.5	0.99	1.91	–
72 h	-3.98	-4.86	-3.52	-0.549	1.82	–

Conditions	drug sensitivity score	relative viability EC50 [µM]
[10]	–	> 10
[11]	–	> 10
[12]	–	> 10
[13]	–	> 10
[14]	–	> 10
[15]	0	–
[16]	0	–
[17]	0	–
[18]	0	–
[19]	0	–

Cc1csc(NC(=O)CSc2ccc(-c3ccccc3)nn2)n1
Conditions	SARS-CoV-2 infection rate, [7] [%]	cell count, [1] [%]	cell viability, [2] [%]	cell viability, [3] [%]	cell viability, [4] [%]	cell viability, [5] [%]	cell viability, [6] [%]	morphology score, [9]
1 nM	–	–	92.1	85	97.8	98	101	–
10 nM	–	–	93.4	99.1	109	97.3	102	–
100 nM	–	–	103	104	90.4	102	99.1	–
0.3 µM	105	97	–	–	–	–	–	-0.03
1000 nM	–	–	97	99.3	89.1	99.3	105	–
3 µM	88	97	–	–	–	–	–	0.29
10 µM	92	107	–	–	–	–	–	0.25
10000 nM	–	–	104	108	87.4	104	94.5	–
30 µM	84	100	–	–	–	–	–	0.25

drug-induced phospholipidosis [%], [8]
Conditions	0.3 µM	0.833333 µM	3.33333 µM	6.66667 µM	10 µM	30 µM
24 h	1.93	-1.81	-0.96	2.15	1.89	7.11
48 h	2.87	0.35	1.94	5.23	4.85	15.6
72 h	2.21	0.253	3.17	3.1	6.16	24.6

Conditions	drug sensitivity score	relative viability EC50 [µM]
[10]	–	> 10
[11]	–	> 10
[12]	–	> 10
[13]	–	> 10
[14]	–	> 10
[15]	0	–
[16]	0	–
[17]	1.2	–
[18]	0	–
[19]	0	–

CC(C)(Cc1ccc2ccccc2c1)NC[C@@H](O)COc1cccc(Cl)c1C#N [NPS-2143]
Conditions	SARS-CoV-2 infection rate [%]	cell count [%]	cell viability [%]	morphology score	phospholipidosis EC50 [µM]
[1], 0.3 µM	–	100	–	–	–
[1], 3 µM	–	113	–	–	–
[1], 10 µM	–	68	–	–	–
[2], 1 nM	–	–	99.1	–	–
[2], 10 nM	–	–	101	–	–
[2], 100 nM	–	–	103	–	–
[2], 1000 nM	–	–	100	–	–
[2], 10000 nM	–	–	50.5	–	–
[3], 1 nM	–	–	89.4	–	–
[3], 10 nM	–	–	95.8	–	–
[3], 100 nM	–	–	96.7	–	–
[3], 1000 nM	–	–	103	–	–
[3], 10000 nM	–	–	0.6	–	–
[4], 1 nM	–	–	100	–	–
[4], 10 nM	–	–	104	–	–
[4], 100 nM	–	–	103	–	–
[4], 1000 nM	–	–	101	–	–
[4], 10000 nM	–	–	53.9	–	–
[5], 1 nM	–	–	100	–	–
[5], 10 nM	–	–	97.9	–	–
[5], 100 nM	–	–	105	–	–
[5], 1000 nM	–	–	96.1	–	–
[5], 10000 nM	–	–	39.1	–	–
[6], 1 nM	–	–	93.1	–	–
[6], 10 nM	–	–	97.6	–	–
[6], 100 nM	–	–	93.5	–	–
[6], 1000 nM	–	–	99.6	–	–
[6], 10000 nM	–	–	84.4	–	–
[7], 0.3 µM	101	–	–	–	–
[7], 3 µM	23	–	–	–	–
[7], 10 µM	43	–	–	–	–
[9], 0.3 µM	–	–	–	0.09	–
[9], 3 µM	–	–	–	0.87	–
[9], 10 µM	–	–	–	0.11	–
[20], 24 h	–	–	–	–	1.06
[20], 48 h	–	–	–	–	2.34
[20], 72 h	–	–	–	–	3.1

drug-induced phospholipidosis [%], [8]
Conditions	0.3 µM	0.833333 µM	3.33333 µM	6.66667 µM	10 µM	30 µM
24 h	14.7	30.2	98.4	140	135	14.7
48 h	8.59	25.2	96.8	135	132	–
72 h	10.7	13.3	94	135	133	–

Conditions	drug sensitivity score	relative viability EC50 [µM]
[11]	–	3.32
[13]	–	2.65
[14]	–	> 10
[15]	2.6	–
[16]	5.3	–
[17]	2.3	–
[18]	3.9	–
[19]	0.3	–

COCC(=O)O[C@]1(CCN(C)CCCc2nc3ccccc3[nH]2)CCc2cc(F)ccc2[C@@H]1C(C)C [mibefradil]
Conditions	SARS-CoV-2 infection rate [%]	cell count [%]	cell viability [%]	morphology score	phospholipidosis EC50 [µM]
[1], 0.3 µM	–	100	–	–	–
[1], 3 µM	–	125	–	–	–
[1], 10 µM	–	119	–	–	–
[1], 30 µM	–	12	–	–	–
[2], 1 nM	–	–	101	–	–
[2], 10 nM	–	–	90.3	–	–
[2], 100 nM	–	–	101	–	–
[2], 1000 nM	–	–	87.4	–	–
[2], 10000 nM	–	–	45.8	–	–
[3], 1 nM	–	–	99.8	–	–
[3], 10 nM	–	–	105	–	–
[3], 100 nM	–	–	109	–	–
[3], 1000 nM	–	–	101	–	–
[3], 10000 nM	–	–	7.2	–	–
[4], 1 nM	–	–	99	–	–
[4], 10 nM	–	–	97.7	–	–
[4], 100 nM	–	–	88.2	–	–
[4], 1000 nM	–	–	98.3	–	–
[4], 10000 nM	–	–	50.3	–	–
[5], 1 nM	–	–	103	–	–
[5], 10 nM	–	–	97.9	–	–
[5], 100 nM	–	–	98.7	–	–
[5], 1000 nM	–	–	90.9	–	–
[5], 10000 nM	–	–	65.6	–	–
[6], 1 nM	–	–	94.7	–	–
[6], 10 nM	–	–	98.8	–	–
[6], 100 nM	–	–	92.9	–	–
[6], 1000 nM	–	–	91.4	–	–
[6], 10000 nM	–	–	89	–	–
[7], 0.3 µM	102	–	–	–	–
[7], 3 µM	32	–	–	–	–
[7], 10 µM	9	–	–	–	–
[7], 30 µM	84	–	–	–	–
[9], 0.3 µM	–	–	–	-0.1	–
[9], 3 µM	–	–	–	0.85	–
[9], 10 µM	–	–	–	0.71	–
[9], 30 µM	–	–	–	-0.08	–
[20], 24 h	–	–	–	–	2.94
[20], 48 h	–	–	–	–	4.35
[20], 72 h	–	–	–	–	7.83

drug-induced phospholipidosis [%], [8]
Conditions	0.3 µM	0.833333 µM	3.33333 µM	6.66667 µM	10 µM	30 µM
24 h	-2.56	5.28	65.2	87.9	115	45.3
48 h	0.45	7.22	63.5	96.7	118	–
72 h	4.04	7.42	45.4	91.8	122	–

Conditions	drug sensitivity score	relative viability EC50 [µM]
[10]	–	1.61
[11]	–	3.24
[14]	–	> 10
[15]	4.9	–
[16]	5.1	–
[17]	2.8	–
[18]	3	–
[19]	0	–
